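These data come from cells grown in 96-well plates and exposed to compound for 48 hours at five concentrations. Here, GI50 denotes the concentration required for 50% inhibition of growth.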 Calls of active or inactive are those of the source. No stated cut-off is given here; in the data, active = GI50 up to about 1.1 µM and inactive = higher.
Assays:
Test in all cases: inhibition of tumour cell growth, NCI panel, 48 h
[1] = system: 786-0
[2] = system: A549
[3] = system: ACHN
[4] = system: EKVX
[5] = system: HCC 2998
[6] = system: HCT-15
[7] = system: HOP-92
[8] = system: MDA-MB-231
[9] = system: Malme-3M
[10] = system: NCI-H460
[11] = system: OVCAR-4
[12] = system: PC-3
[13] = system: SF-295
[14] = system: SK-OV-3
[15] = system: SR
[16] = system: T47D
[17] = system: U-251
[18] = system: UACC-62
[19] = system: HL-60
[20] = system: K562

SMILES | GI50 [1] | GI50 [2] | GI50 [3] | GI50 [4] | GI50 [5] | GI50 [6] [µM] | GI50 [7] | GI50 [8] | GI50 [9] | GI50 [10] | GI50 [11] | GI50 [12] | GI50 [13] | GI50 [14] | GI50 [15] | GI50 [16] | GI50 [17] | GI50 [18] | GI50 [19] | GI50 [20]
COc1cc(OC)cc(N(C)Cc2cnc3nc(N)nc(N)c3c2C)c1 | 0.427 µM (active) | 0.421 µM (active) | 0.746 µM (active) | > 47.3 µM (inactive) | 3.52 µM (inactive) | 1.27 | 13.3 µM (inactive) | 21.3 µM (inactive) | 0.817 µM (active) | 0.474 µM (active) | 20.1 µM (inactive) | 0.565 µM (active) | 0.535 µM (active) | 13.6 µM (inactive) | 0.541 µM (active) | 38.3 µM (inactive) | 0.543 µM (active) | 0.719 µM (active) |  | 
CCOC(=O)Cc1nc2sc(S(N)(=O)=O)nn2c1Br | 23.2 µM (inactive) | 33 µM (inactive) | 27.2 µM (inactive) | 26.6 µM (inactive) | 22.2 µM (inactive) | 23.7 | 22.8 µM (inactive) | 17.6 µM (inactive) | 29.2 µM (inactive) | 32 µM (inactive) |  | 22 µM (inactive) | > 100 µM (inactive) | > 100 µM (inactive) | 40.6 µM (inactive) | 27.3 µM (inactive) | 15.3 µM (inactive) | 16.6 µM (inactive) | 25.5 µM (inactive) | 41.5 µM (inactive)
CC(C)(C)CC(C)(C)NC(=S)NO | > 100 µM (inactive) | > 100 µM (inactive) | > 100 µM (inactive) | > 100 µM (inactive) | > 100 µM (inactive) | > 100 | 63.7 µM (inactive) | > 100 µM (inactive) | > 100 µM (inactive) | > 100 µM (inactive) | > 100 µM (inactive) | > 100 µM (inactive) | > 100 µM (inactive) | > 100 µM (inactive) | > 100 µM (inactive) | > 100 µM (inactive) |  | > 100 µM (inactive) | > 100 µM (inactive) | > 100 µM (inactive)
N=C(N)N/N=C/c1ccc(O)c(C(=O)O)c1 | > 100 µM (inactive) | > 100 µM (inactive) | > 100 µM (inactive) |  | > 100 µM (inactive) | > 100 | > 100 µM (inactive) | > 100 µM (inactive) | 99.1 µM (inactive) | > 100 µM (inactive) | > 100 µM (inactive) | > 100 µM (inactive) | > 100 µM (inactive) | > 100 µM (inactive) | > 100 µM (inactive) | > 100 µM (inactive) | > 100 µM (inactive) | > 100 µM (inactive) |  | > 100 µM (inactive)
Cc1cc(N2CCOCC2)nc2ccc(Cc3ccc4nc(N5CCOCC5)cc(C)c4c3)cc12 | 32 µM (inactive) | 41.7 µM (inactive) | 48.5 µM (inactive) | 20.7 µM (inactive) | 15.6 µM (inactive) | 41.8 | > 100 µM (inactive) | > 100 µM (inactive) | 51.1 µM (inactive) | 26.7 µM (inactive) | > 100 µM (inactive) | 56.4 µM (inactive) | 78.7 µM (inactive) | > 100 µM (inactive) | 28.3 µM (inactive) | 14.6 µM (inactive) | 26.7 µM (inactive) | 45.8 µM (inactive) |  | 27 µM (inactive)
CC(C)/C=N\N1C(N)=C(C#N)C(C#N)(C#N)C1C(C)C (centres undefined) | 60.7 µM (inactive) | 60.4 µM (inactive) | 65.3 µM (inactive) | > 100 µM (inactive) | 34.4 µM (inactive) | 32.7 |  | 29.9 µM (inactive) | > 100 µM (inactive) |  | 52.1 µM (inactive) | 55.3 µM (inactive) | > 100 µM (inactive) | > 100 µM (inactive) | 29.3 µM (inactive) | 48.9 µM (inactive) | 39.6 µM (inactive) | 26.4 µM (inactive) | 32.4 µM (inactive) | 42.1 µM (inactive)
CN/N=C(\C)C(CN(C)C)C(c1ccccc1)c1c(O)c2ccccc2oc1=O (centres undefined) | > 100 µM (inactive) | > 100 µM (inactive) | > 100 µM (inactive) | > 100 µM (inactive) | > 100 µM (inactive) | > 100 | 0.0574 µM (active) | > 100 µM (inactive) | 78.9 µM (inactive) | > 100 µM (inactive) | 99.1 µM (inactive) | > 100 µM (inactive) | > 100 µM (inactive) |  | 67.9 µM (inactive) | 18.7 µM (inactive) | > 100 µM (inactive) | 31.3 µM (inactive) | 29.7 µM (inactive) | > 100 µM (inactive)
CN(C)c1ccc(/C(Br)=C2\OC(=O)c3ccccc32)cc1 | > 100 µM (inactive) | > 100 µM (inactive) | > 100 µM (inactive) | > 100 µM (inactive) | > 100 µM (inactive) | 87.3 |  | > 100 µM (inactive) | 67.1 µM (inactive) | > 100 µM (inactive) | > 100 µM (inactive) | > 100 µM (inactive) | 76.2 µM (inactive) | > 100 µM (inactive) | 34.8 µM (inactive) | 11.3 µM (inactive) | > 100 µM (inactive) | > 100 µM (inactive) | 34 µM (inactive) | 59.6 µM (inactive)
